{
  "source": "patent US5962533A",
  "about": "“Hydroxy polyamines” (priority 1996, dated 1999)",
  "key": {"[1]": {"system": "polyamine transport apparatus", "test": "Competition with radiolabeled spermidine for uptake into L1210 cells (Ki)", "type": "cell-based, Murine", "procedure": "The same cell line was utilized to evaluate the tetraamines's competition with radiolabeled spermidine for the polyamine uptake apparatus (Ki). The Ki values here are the concentrations of drugs required to inhibit the uptake of radioactive spermidine transport by 50% (Table 1).\nUptake Determinations. The polyamine derivatives were studied for their ability to compete with [^3 H]SPD or [^14 C]SPD for uptake into L1210 leukemia cells in vitro. Cell suspensions were incubated in 1 ml of RPMI-1640 containing 1, 2, 4, 6, 8 and 10 μm radiolabeled SPD alone or with the additional presence of 10, 25 and 50 μm polyamine analogue for 20 minutes at 37° C. At the end of the incubation period, tubes were centrifuged at 900 g for 5 minutes at 0-4° C. The pellet was washed twice with 5 ml of cold RPMI-1640 containing 1 mm SPD, dissolved in 200 μl of 1N NaOH at 60° C. for 1 hour, and neutralized with 1N HCl. The material was transferred to a vial for scintillation counting."}, "[2]": {"test": "Protonation state at physiological pH assumed from measured pKa values", "type": "physicochemical", "settings": "physiological pH of 7.2", "procedure": "All of the non-aromatic, non-trifluoroethylated tetraamines are largely in the form of the tetracation at the physiological pH of 7.2. The spermine analogues (13-16 and 34) and the homospermine analogues and homologues (18-26, 29 and 31-33) should be 85 and 97%, respectively, in the form of the tetracations. The norspermine analogues (9-12) should be at least 74% in the form of the tetracations. […] Thus, the calculation of atomic charges and conformational search of these analogues were carried out based on the anticipated protonated structures."}, "[3]": {"system": "castor oil-induced diarrhea", "test": "Castor oil-induced diarrhea", "type": "in vivo, rat", "settings": "rat", "from_the_text": "Castor Oil-Induced Diarrhea. Male Sprague-Dawley rats (350-400 g) were fasted overnight in hanging wire cages and allowed free access to water."}, "[4]": {"test": "Acute toxicity, single intraperitoneal injection", "settings": "mouse, in vivo, ip"}, "[5]": {"settings": "triamine analogues, bioassay results not in model data set, read-out: Ki, Actual (Table 2)"}, "[6]": {"settings": "tetraamine analogues, L1210 cells, radiolabeled spermidine uptake, read-out: Ki, actual (Table 1)"}},
  "note": "Read-outs that look alike come from different tables or passages of the source.",
  "data": [
    {"smiles": "CCNCCCNCCCCN", "note": "[N^1 -MESPD]", "values": [
      {"measurement": "Ki", "setting": "[1]; [5]", "value": 8.6, "unit": "µM"}
    ]},
    {"smiles": "CNCCCNCCCNCCCNC", "note": "[DMNSPM]", "values": [
      {"measurement": "Ki", "setting": "[1]; [6]", "value": 5.6, "unit": "µM"}
    ]},
    {"smiles": "c1cc(CNCCCCNCc2ccncc2)ccn1", "note": "[PYR(4,4,4)]", "values": [
      {"measurement": "Ki", "setting": "[1]; [6]", "value": "> 500", "unit": "µM"},
      {"measurement": "protonation state", "setting": "[2]", "value": "almost exclusively in the form of the internal dication"}
    ]},
    {"smiles": "CCNCCCNCCCCNCCCNCC", "note": "[DESPM]", "values": [
      {"measurement": "Ki", "setting": "[1]; [6]", "value": 1.6, "unit": "µM"}
    ]},
    {"smiles": "CC(C)NCCCCNCCCCNCCCCNC(C)C", "note": "[DIPHSPM]", "values": [
      {"measurement": "Ki", "setting": "[1]; [6]", "value": 8.1, "unit": "µM"}
    ]},
    {"smiles": "C(CCNCCC1CCNCC1)CNCCC1CCNCC1", "note": "[PIP(5,4,5)]", "values": [
      {"measurement": "Ki", "setting": "[1]; [6]", "value": 18.1, "unit": "µM"}
    ]},
    {"smiles": "CCNCCCCNCCCNCC", "note": "[DESPD]", "values": [
      {"measurement": "Ki", "setting": "[1]; [5]", "value": 19.3, "unit": "µM"}
    ]},
    {"smiles": "CCNCCCCNCCCCNCCCNCC", "note": "[DE(3,4,4)]", "values": [
      {"measurement": "Ki", "setting": "[1]; [6]", "value": 8, "unit": "µM"}
    ]},
    {"smiles": "CCNCCCCNCCCCNCC", "note": "[DEHSPD]", "values": [
      {"measurement": "Ki", "setting": "[1]; [5]", "value": 115, "unit": "µM"}
    ]},
    {"smiles": "CNCCCCNCCCCNCCCCNC", "note": "[DMHSPM]", "values": [
      {"measurement": "Ki", "setting": "[1]; [6]", "value": 0.97, "unit": "µM"}
    ]},
    {"smiles": "CCNCCCCNCCCNCCCCNCC", "note": "[DE(4,3,4)]", "values": [
      {"measurement": "Ki", "setting": "[1]; [6]", "value": 4, "unit": "µM"}
    ]},
    {"smiles": "CCNCCCNCCCNCC", "note": "[DENSPD]", "values": [
      {"measurement": "Ki", "setting": "[1]; [5]", "value": 200, "unit": "µM"}
    ]},
    {"smiles": "c1cc(NCCCNc2ccncc2)ccn1", "note": "[PYR(3,3,3)]", "values": [
      {"measurement": "Ki", "setting": "[1]; [6]", "value": "> 500", "unit": "µM"},
      {"measurement": "protonation state", "setting": "[2]", "value": "terminal dication"}
    ]},
    {"smiles": "CCNCCCCNCCCCNCCCCN", "note": "[MEHSPM, N^1 -ethylhomospermine]", "values": [
      {"measurement": "Ki", "setting": "[1]; [6]", "value": 1.1, "unit": "µM"}
    ]},
    {"smiles": "CCNCCCNCCCNCCCNCC", "note": "[DENSPM, Diethylnorspermine]", "values": [
      {"measurement": "Ki", "setting": "[1]; [6]", "value": 17, "unit": "µM"},
      {"measurement": "anti-diarrheal activity", "setting": "[3]; 40 mg/kg", "value": "far less active than the homospermine compounds"},
      {"measurement": "stool output / diarrhea during 6 hour assay (FIG. 8)", "setting": "[3]; subcutaneous injection 30 minutes before castor oil 5 ml/kg", "value": "became diarrheal during the 6 hour assay"},
      {"measurement": "LD50", "setting": "[4]", "value": 325, "unit": "mg/kg"}
    ]},
    {"smiles": "NCCCCNCCCCN", "note": "[HSPD]", "values": [
      {"measurement": "Ki", "setting": "[1]; [5]", "value": 3.5, "unit": "µM"}
    ]}
  ]
}
